Test results published in US20120202856A1, “SUBSTITUTED BENZIMDAZOLE DERIVATIVES USEFUL AS TRPM8 RECEPTOR MODULATORS” (priority 2011, published 2012).
Values joined by “and” are separate entries in the source; they are usually repeats but may differ in a detail not shown here. Equal entries are not always repeated. Structures can show the parent of a compound that is named as a salt.

Biological target: T1, canine TRPM8 (Canis lupus familiaris, UniProt Q1A7N1)
T1 construct: expressed in transfected cells
T1 sequence (Q1A7N1 1-1104): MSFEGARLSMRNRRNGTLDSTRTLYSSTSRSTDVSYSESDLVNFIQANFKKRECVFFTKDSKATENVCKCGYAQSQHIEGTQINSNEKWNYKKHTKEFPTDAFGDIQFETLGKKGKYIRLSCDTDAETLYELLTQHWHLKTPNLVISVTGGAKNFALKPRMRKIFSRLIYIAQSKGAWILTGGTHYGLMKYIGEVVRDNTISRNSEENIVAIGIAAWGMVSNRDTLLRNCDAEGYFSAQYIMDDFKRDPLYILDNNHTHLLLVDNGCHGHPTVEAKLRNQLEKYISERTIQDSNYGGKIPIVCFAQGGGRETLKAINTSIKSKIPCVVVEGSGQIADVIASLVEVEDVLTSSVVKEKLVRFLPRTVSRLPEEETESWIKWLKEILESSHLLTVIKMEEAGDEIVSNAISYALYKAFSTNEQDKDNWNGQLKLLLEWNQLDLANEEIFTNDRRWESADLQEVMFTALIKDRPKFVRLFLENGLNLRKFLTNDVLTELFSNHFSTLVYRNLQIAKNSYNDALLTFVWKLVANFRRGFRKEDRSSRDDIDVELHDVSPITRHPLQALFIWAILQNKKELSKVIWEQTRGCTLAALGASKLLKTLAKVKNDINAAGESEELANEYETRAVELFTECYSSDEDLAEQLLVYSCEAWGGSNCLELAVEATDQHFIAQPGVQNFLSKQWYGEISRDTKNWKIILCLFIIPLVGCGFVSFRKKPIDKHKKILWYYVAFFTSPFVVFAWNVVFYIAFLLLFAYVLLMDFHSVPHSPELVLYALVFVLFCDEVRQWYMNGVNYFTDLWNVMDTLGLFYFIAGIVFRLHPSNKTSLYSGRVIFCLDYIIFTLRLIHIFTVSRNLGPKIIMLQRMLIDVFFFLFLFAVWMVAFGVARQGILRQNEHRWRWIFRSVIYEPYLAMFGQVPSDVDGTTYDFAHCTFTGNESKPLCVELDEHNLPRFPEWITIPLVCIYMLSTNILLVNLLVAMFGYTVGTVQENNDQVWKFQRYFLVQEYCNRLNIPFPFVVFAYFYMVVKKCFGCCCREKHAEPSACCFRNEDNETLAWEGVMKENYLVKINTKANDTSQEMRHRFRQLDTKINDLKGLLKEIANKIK
Assay: In Vitro Canine TRPM8 Functional Assay (intracellular Ca2+ fluorescence, icilin activation, HEK293 cells)
Format: cell-based
Conditions: for inhibition at 0.2 µM: HEK293, 0.2 μM test compound, read-out: % Inh (%) @0.2 μM, in vitro TRP M8 Activity; for IC50: HEK293 cells expressing canine TRPM8, icilin activation, individually measured values (batches/salt forms), read-out: IC50 (nM), in vitro TRP M8 Activity
Experimental: The changes in fluorescent signal were monitored by a fluorescence plate reader, either a FLIPR™ (Molecular Devices) or FDSS (Hamamatsu). […] Cells were maintained in 5% CO2 at 37° C. At 24 hr prior to assay, cells were seeded in black wall, clear-base poly-D-lysine coated 384-well plates (BD Biosciences, NJ, USA) at a density of 5,000 cells per well in culture medium and grown overnight in 5% CO2 at 37° C. On assay day, growth media was removed, and cells were loaded with Calcium 3 Dye (Molecular Devices) for 35 min at 37° C., under 5% CO2 and then incubated for 25 min at room temperature and atmosphere. Subsequently, cells were tested for agonist-induced increases in intracellular Ca^2+ levels using FLIPR™ or FDSS. […] Maximal fluorescence intensity (FI) achieved upon addition of icilin was exported from the FLIPR™ or FDSS software and further analyzed using GraphPad Prism 3.02 (Graph Pad Software Inc., CA, U.S.A.). Basal FI was subtracted prior to normalizing data to percent of maximal response. Curves were generated using the average of quadruplicate wells for each data point using nonlinear regression of either sigmoidal dose response or sigmoidal dose response (variable slope). Finally, IC50 values were calculated with the best-fit curve determined by GraphPad Prism

inhibition at 0.2 µM (individually measured values)	IC50	% Inh (%) @0.2 μM, in vitro TRP M8 Activity (0.2 μM test compound, individually measured values, hydrochloride, 0.2 µM)	SMILES
99%	3.9 nM and 4 nM		CC(C)(C)c1cc(-c2nc3cc(-c4c(F)cccc4C(F)(F)F)cc(C(F)(F)F)c3[nH]2)on1 [Compound 144, 2-(3-tert-Butyl-isoxazol-5-yl)-5-(2-fluoro-6-trifluoromethyl-phenyl)-7-trifluoromethyl-1H-benzimidazole hydrochloride]
	11.1 nM and 8 nM		COc1ccccc1-c1ccc2[nH]c(-c3cc(C(C)(C)C)no3)nc2c1 [Compound 8, 2-(3-tert-Butylisoxazol-5-yl)-5-(2-methoxyphenyl)-1H-benzimidazole sodium salt]
100%	8.7 nM		Cn1nc(C(C)(C)C)c(C#N)c1-c1nc2cc(-c3c(F)cccc3C(F)(F)F)cc(Cl)c2[nH]1 [Compound 172, 3-tert-Butyl-5-[7-chloro-5-(2-fluoro-6-trifluoromethyl-phenyl)-1H-benzimidazol-2-yl]-1-methyl-1H-pyrazole-4-carbonitrile sodium salt]
19%			Cc1oc(C(C)(C)C)nc1-c1nc2cc(-c3ccccc3OC(F)(F)F)cc(Cl)c2[nH]1 [Compound 159, 2-(2-tert-Butyl-5-methyl-oxazol-4-yl)-7-chloro-5-(2-trifluoromethoxy-phenyl)-1H-benzimidazole hydrochloride]
	11.9 nM		Cn1nc(C(C)(C)C)cc1-c1nc2cc(-c3ccccc3C#N)ccc2[nH]1 [Compound 60, 2-[2-(5-tert-Butyl-2-methyl-2H-pyrazol-3-yl)-1H-benzimidazol-5-yl]-benzonitrile trifluoroacetic acid salt]
	15.5 nM		Cc1ccccc1-c1ccc2[nH]c(-c3cc(C(C)(C)C)no3)nc2c1 [Compound 65, 2-(3-tert-Butyl-isoxazol-5-yl)-5-o-tolyl-1H-benzimidazole trifluoroacetic acid salt]
	151 nM		FC(F)(F)c1ccccc1-c1ccc2[nH]c(-c3cc(Br)no3)nc2c1 [Compound 42, 2-(3-Bromoisoxazol-5-yl)-5-(2-trifluoromethylphenyl)-1H-benzimidazole sodium salt]
99%	4 nM and 6.9 nM		Cc1c(C(C)(C)C)nn(C)c1-c1nc2cc(-c3ccccc3C(F)(F)F)cc(Cl)c2[nH]1 [Compound 135, 2-(5-tert-Butyl-2,4-dimethyl-2H-pyrazol-3-yl)-7-chloro-5-(2-trifluoromethyl-phenyl)-1H-benzimidazole hydrochloride]
	21 nM		Cn1nc2c(c1-c1nc3cc(-c4ccccc4Cl)ccc3[nH]1)CCCC2(C)C [Compound 32, 3-[5-(2-Chlorophenyl)-1H-benzimidazol-2-yl]-2,7,7-trimethyl-4,5,6,7-tetrahydro-2H-indazole sodium salt]
	81.5 nM		Cn1nc(C(F)(F)F)cc1-c1nc2cc(-c3ccccc3C(F)(F)F)ccc2[nH]1 [Compound 40, 2-(5-Trifluoromethyl-2-methyl-2H-pyrazol-3-yl)-5-(2-trifluoromethylphenyl)-1H-benzimidazole sodium salt]
	3.1 nM		COc1cccc(OC)c1-c1ccc2[nH]c(-c3cc(C(C)(C)C)nn3C)nc2c1 [Compound 54, 2-(5-tert-Butyl-2-methyl-2H-pyrazol-3-yl)-5-(2,6-dimethoxy-phenyl)-1H-benzimidazole trifluoroacetic acid salt]
	17.6 nM		Cn1nc(C2(C)CC2)cc1-c1nc2cc(-c3ccccc3C(F)(F)F)ccc2[nH]1 [Compound 52, 2-[2-Methyl-5-(1-methylcyclopropyl)-2H-pyrazol-3-yl]-5-(2-trifluoromethylphenyl)-1H-benzimidazole sodium salt]
99%	7.7 nM and 6.8 nM		Cc1c(C(C)(C)C)nn(C)c1-c1nc2cc(-c3c(F)cccc3OC(F)(F)F)cc(Cl)c2[nH]1 [Compound 138, 2-(5-tert-Butyl-2,4-dimethyl-2H-pyrazol-3-yl)-7-chloro-5-(2-fluoro-6-trifluoromethoxy-phenyl)-1H-benzimidazole hydrochloride]
	5.5 nM		Cc1ccccc1-c1ccc2[nH]c(-c3cc(C(C)(C)C)nn3C)nc2c1 [Compound 55, 2-(5-tert-Butyl-2-methyl-2H-pyrazol-3-yl)-5-o-tolyl-1H-benzimidazole trifluoroacetic acid salt]
	27 nM		CCCc1cc(-c2nc3ccc(-c4ccccc4C(F)(F)F)cc3[nH]2)on1 [Compound 18, 2-(3-Propylisoxazol-5-yl)-6-(2-trifluoromethylphenyl)-1H-benzimidazole hydrochloride]
	14.6 nM and 20.7 nM		Cn1nc(C(C)(C)C)cc1-c1nc2cc(-c3ccccc3F)ccc2[nH]1 [Compound 57, 2-(5-tert-Butyl-2-methyl-2H-pyrazol-3-yl)-5-(2-fluoro-phenyl)-1H-benzimidazole trifluoroacetic acid salt]

inhibition at 0.2 µM (individually measured values)	IC50	% Inh (%) @0.2 μM, in vitro TRP M8 Activity (0.2 μM test compound, individually measured values, hydrochloride, 0.2 µM)	SMILES
59%			Cc1oc(C(C)(C)C)nc1-c1nc2cc(-c3ccccc3Cl)cc(C(F)(F)F)c2[nH]1 [Compound 155, 2-(2-tert-Butyl-5-methyl-oxazol-4-yl)-5-(2-chloro-phenyl)-7-trifluoromethyl-1H-benzimidazole hydrochloride]
	24.5 nM		FC(F)(F)c1ccccc1-c1ccc2[nH]c(-c3cc(C4CCCC4)no3)nc2c1 [Compound 92, 2-(3-Cyclopentylisoxazol-5-yl)-5-(2-trifluoromethylphenyl)-1H-benzimidazole]
100%	5 nM and 4.1 nM and 2.9 nM	99%	Cl.Cn1nc(C(C)(C)C)c(C#N)c1-c1nc2cc(-c3ccccc3Cl)cc(C(F)(F)F)c2[nH]1 [Compound 148, 3-tert-Butyl-5-[5-(2-chloro-phenyl)-7-trifluoromethyl-1H-benzimidazol-2-yl]-1-methyl-1H-pyrazole-4-carbonitrile hydrochloride]
	27 nM		Cn1nc(C(C)(C)C)c(Cl)c1-c1nc2cc(-c3ccccc3OC(F)(F)F)ccc2[nH]1 [Compound 51, 2-(5-tert-Butyl-4-chloro-2-methyl-2H-pyrazol-3-yl)-5-(2-trifluoromethoxyphenyl)-1H-benzimidazole sodium salt]
100%	42 nM		Cn1nc2c(c1-c1nc3cc(-c4ccccc4F)ccc3[nH]1)CCC2(C)C [Compound 131]
	2 nM and 7 nM		Cn1nc(C(C)(C)C)cc1-c1nc2cc(-c3ccccc3OC(F)F)ccc2[nH]1 [Compound 81, 2-(5-tert-Butyl-2-methyl-2H-pyrazol-3-yl)-5-(2-difluoromethoxyphenyl)-1H-benzimidazole hydrochloride]
36%			Cc1oc(C(C)(C)C)nc1-c1nc2cc(-c3ccccc3F)cc(Cl)c2[nH]1 [Compound 161, 2-(2-tert-Butyl-5-methyl-oxazol-4-yl)-7-chloro-5-(2-fluoro-phenyl)-1H-benzimidazole hydrochloride]
	16.4 nM		COc1ccc(F)cc1-c1ccc2[nH]c(-c3cc(C(C)(C)C)no3)nc2c1 [Compound 105, 2-(3-tert-Butyl-isoxazol-5-yl)-5-(5-fluoro-2-methoxy-phenyl)-1H-benzimidazole hydrochloride]
	14.3 nM		Cc1c(C(C)(C)C)noc1-c1nc2cc(-c3c(F)cccc3OC(F)(F)F)ccc2[nH]1 [Compound 110, 2-(3-tert-Butyl-4-methyl-isoxazol-5-yl)-5-(2-fluoro-6-trifluoromethoxy-phenyl)-1H-benzimidazole hydrochloride]
60%			Cc1nc(C(C)(C)C)oc1-c1nc2cc(-c3ccccc3OC(F)(F)F)cc(C(F)(F)F)c2[nH]1 [Compound 176, 2-(2-tert-Butyl-4-methyl-oxazol-5-yl)-5-(2-trifluoromethoxy-phenyl)-7-trifluoromethyl-1H-benzimidazole hydrochloride]
	84 nM		Cn1nc2c(c1-c1nc3cc(-c4ccccc4OC(F)(F)F)ccc3[nH]1)CCCC2(C)C [Compound 31, 2,7,7-Trimethyl-3-[5-(2-trifluoromethoxyphenyl)-1H-benzimidazol-2-yl]-4,5,6,7-tetrahydro-2H-indazole sodium salt]
46%			Cc1oc(-c2nc3cc(-c4ccccc4OC(F)(F)F)cc(C(F)(F)F)c3[nH]2)nc1C(C)(C)C [Compound 195, 2-(4-tert-Butyl-5-methyl-oxazol-2-yl)-5-(2-trifluoromethoxy-phenyl)-7-trifluoromethyl-1H-benzimidazole hydrochloride]
	29 nM		CC(C)(C)Cc1cc(-c2nc3ccc(-c4ccccc4OC(F)(F)F)cc3[nH]2)on1 [Compound 21, 2-[3-(2,2-Dimethylpropyl)-isoxazol-5-yl]-6-(2-trifluoromethoxyphenyl)-1H-benzimidazole hydrochloride]
	21 nM		CC(C)n1nc(C(C)(C)C)cc1-c1nc2cc(-c3ccccc3C(F)(F)F)ccc2[nH]1 [Compound 46, 2-(5-tert-Butyl-2-isopropyl-2H-pyrazol-3-yl)-5-(2-trifluoromethylphenyl)-1H-benzimidazole sodium salt]
18%			Cc1nc(C(C)(C)C)oc1-c1nc2cc(-c3ccccc3Cl)cc(C(F)(F)F)c2[nH]1 [Compound 179, 2-(2-tert-Butyl-4-methyl-oxazol-5-yl)-5-(2-chloro-phenyl)-7-trifluoromethyl-1H-benzimidazole hydrochloride]
